Measurements taken from patent US20260217683A1, “PYRIDAZINONE HETEROCYCLIC COMPOUND MYOSIN II INHIBITOR AND USE THEREOF” (Xizang Haisco Pharmaceutical Co., Ltd., priority 2023, published 2026).

Key:
[1] = molecular target: T1, hERG potassium ion channel (Homo sapiens, UniProt Q12809); assay: Effect on hERG potassium ion channel (manual patch-clamp, CHO cells); assay type: cell-based; conditions: CHO cells stably expressing hERG, whole cell patch-clamp; read-out: IC50 of the inhibitory effect on hERG potassium channel current
T1 construct: expressed in transfected cells
T1 sequence (Q12809 whole entry): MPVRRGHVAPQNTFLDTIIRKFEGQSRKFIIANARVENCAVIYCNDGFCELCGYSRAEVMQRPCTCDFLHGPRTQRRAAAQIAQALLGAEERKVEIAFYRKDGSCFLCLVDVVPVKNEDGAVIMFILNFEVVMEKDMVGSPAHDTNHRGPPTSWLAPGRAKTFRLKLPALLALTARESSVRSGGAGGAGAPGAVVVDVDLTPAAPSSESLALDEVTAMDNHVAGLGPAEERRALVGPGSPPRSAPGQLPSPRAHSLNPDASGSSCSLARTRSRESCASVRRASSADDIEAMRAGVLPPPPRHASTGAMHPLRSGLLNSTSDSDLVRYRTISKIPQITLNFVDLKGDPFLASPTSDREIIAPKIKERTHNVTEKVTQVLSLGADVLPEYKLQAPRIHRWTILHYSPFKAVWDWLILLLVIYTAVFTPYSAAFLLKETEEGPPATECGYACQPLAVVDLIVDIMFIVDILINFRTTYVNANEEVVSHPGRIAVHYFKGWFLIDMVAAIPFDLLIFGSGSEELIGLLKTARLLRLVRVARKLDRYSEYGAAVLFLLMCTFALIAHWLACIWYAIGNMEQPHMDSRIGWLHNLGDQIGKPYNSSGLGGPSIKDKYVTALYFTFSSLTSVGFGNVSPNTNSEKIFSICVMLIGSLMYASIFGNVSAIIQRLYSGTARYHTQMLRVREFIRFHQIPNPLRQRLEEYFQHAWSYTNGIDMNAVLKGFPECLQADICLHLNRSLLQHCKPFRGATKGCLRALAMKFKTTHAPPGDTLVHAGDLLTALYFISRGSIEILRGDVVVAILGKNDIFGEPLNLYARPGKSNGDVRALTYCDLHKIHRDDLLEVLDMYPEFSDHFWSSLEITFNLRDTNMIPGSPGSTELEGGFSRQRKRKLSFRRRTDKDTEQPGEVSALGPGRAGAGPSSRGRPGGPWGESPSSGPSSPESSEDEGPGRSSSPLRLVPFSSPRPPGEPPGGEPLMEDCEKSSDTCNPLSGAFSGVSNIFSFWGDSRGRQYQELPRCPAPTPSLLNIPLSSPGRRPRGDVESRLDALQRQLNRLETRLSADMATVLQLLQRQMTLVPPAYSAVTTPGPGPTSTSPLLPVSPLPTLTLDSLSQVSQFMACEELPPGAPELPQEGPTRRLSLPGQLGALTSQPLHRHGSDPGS
Description: 1. Experimental platform: electrophysiological manual patch-clamp system
2. Cell line: Chinese hamster ovary (CH—O) cell lines stably expressing hERG potassium ion channel
3. Experimental method: in CHO (Chinese Hamster Ovary) cells stably expressing hERG potassium channel, whole cell patch-clamp technique was used to record hERG potassium channel current at room temperature. The glass microelectrode was made of a glass electrode blank (BF150-86-10, Sutter) by a puller. The tip resistance after filling the liquid in the electrode was about 2-5 MQ. The glass microelectrode can be connected to the patch-clamp amplifier by inserting the glass microelectrode into an amplifier probe. The clamping voltage and data recording were controlled and recorded by the pClamp 10 software through a computer. The sampling frequency was 10 kHz, and the filtering frequency was 2 kHz. After the whole cell records were obtained, the cells were clamped at −80 mV, and the step voltage that induced the hERG potassium current (IhERG) was depolarized from −80 mV to +20 mV for 2 s, then repolarized to −50 mV, and returned to −80 mV after 1 s. This voltage stimulation was given every 10 s, and the administration process was started after the hERG potassium current was confirmed to be stable (at least 1 minute). The compound was administered for at least 1 minute at each test concentration, and at least 2 cells (n≥2) were tested at each concentration.
4. Data processing: Data analysis processing was carried out by using pClamp 10, GraphPad Prism 5 and Excel software. The inhibition degree of hERG potassium current (peak value of hERG tail current induced at −50 mV) at different compound concentrations was calculated by the following formula:
[formula] • where Inhibition % represents the percentage of inhibition of hERG potassium current by the compound, and I and Io represent the amplitude of hERG potassium current after and before the administration, respectively.
Compound IC50 was calculated using GraphPad Prism 5 software by fitting according to the following equation: […]
Among the equation, X represents the Log value of the tested concentration of the test sample, Y represents the inhibition percentage at the corresponding concentration, and Bottom and Top represent the minimum and maximum inhibition percentage, respectively.

[2] = system: B10-Dmd-KO (Mdx) mice; assay: PK/PD detection of mouse model with Dmd (Mdx) gene mutation, plasma CK; assay type: in vivo; conditions: oral
Description: Experimental objective: Bl0-Dmd-KO (Mdx) mice are DMD function-deficient mice caused by frameshift mutations in the Dmd gene. […] This study has investigated the effects on CK and TNNI2 in the plasma of Mdx mice upon administration of compounds.
Experimental animal: B10-Dmd-KO (C57BL/10ScSnJGpt-Dmdem3Cd4/Gpt), male, 5-7 weeks old, weight 28-30 g, supplier. Gempharmatech Co., Ltd.;
• 1) Running training (D-5): Mdx mice underwent running training in batches. The training parameters were set as three time periods, i.e., the initial speed of 4 m/min for 2 min, then 8 m/min for 8 min, and finally 12 m/min for 30 min, a total of 40 min; • 2) Gripping strength test (D-2): each round was measured three times, and three rounds were performed; • 3) Grouping (DO): the animals were anesthetized by inhalation of isoflurane (concentration: 5%, gas flow rate: 1 L/min), and then a capillary tube was used to collect blood (about 150 μL) via orbital venous sinus into a 0.6 mL centrifuge tube containing EDTA anticoagulant, the plasma wad separated, and the CK value was detected, which was used as the basic value for grouping; • 4) Administration, grasping, and blood collection (D1): The compounds were dissolved in the vehicle 5% DMA+5% HS-15+90% Saline, then orally administered to the mice, and then the grip strength test was conducted (three tests per round for three rounds). […] A capillary tube was used to collect blood (>300 μL) via orbital venous sinus into a 0.6 mL centrifuge tube containing EDTA anticoagulant, and then the animals were euthanized to collect the tibialis anterior muscle (left leg), soleus muscle (both legs) and cardiac muscle, which were weighed and recorded, placed in a homogenization tube and quickly frozen in liquid nitrogen, then stored at −80° C.
Sample processing: After the whole blood anticoagulated with EDTA was centrifuged at 3000 rpm and 4° C. for 10 min, the […] was collected and subpackaged. The separated […] was subjected to a biochemical analyzer (Fully automatic biochemical analyzer Roche C311) to detect the CK value and TNN12 value (Mouse TNNI2 Elisa Kit, ABBEXA, E2207370Y); The […] concentration of the compound and the drug concentration in tibialis anterior muscle, soleus muscle and cardiac muscle were measured by LC/MS instrument.

[3] = Pharmacokinetic experiment of beagle dogs; assay type: in vivo; conditions: male, dog, plasma, oral, beagles, intragastric 3 mg/kg vs intravenous 1 mg/kg, read-out: bioavailability (F)
Protocol: 1. Experimental animals: male beagle dogs, about 8-11 kg, 6 beagle dogs/compound, purchased from Beijing Marshall Biotechnology Co., Ltd.
2. Experimental method: On the day of the test, (6×number of test compounds (n)) beagles were randomly divided into groups according to body weight. The animals were fasted with water available for 12 to 14 h one day before the administration and were fed 4 h after the administration. Administration was performed as per Table 6.
• Before and after the administration, 1 mL of blood was taken from the jugular veins or limb veins, and placed in an EDTAK2 centrifuge tube. Centrifugation was performed at 5000 rpm at 4° C. for 10 min, and plasma was collected. The blood collection time points for the intravenous group and intragastric administration group were: 0 min, 5 min, 15 min, 30 min, 1 h, 2 h, 4 h, 6 h, 8 h, 10 h, 12 h, 24 h, 48 h, 72 h, and 96 h. Before analysis and detection, all samples were stored at −80° C. The samples were analyzed quantitatively by LC-MS/MS.

[4] = 10 mpk, QD administration for 7 days

SMILES	IC50 [1]	other results
O=C1CCc2ccc(Cn3nc(-c4cnc(OC5COCC5(F)F)nc4)ccc3=O)cc21 (stereo not drawn) [Compound 164]	> 40 µM	
O=C1CCc2ccc(Cn3nc(-c4cnc(OCC(F)F)nc4)ccc3=O)cc21 [Compound 131]		Inhibition rate of CK values (sampled 24 h after (last) dose) [2, 4]: 94.1%; bioavailability [3]: 112%
O=C1CCc2ccc(Cn3nc(-c4cnc(O[C@H]5CCOC5)nc4)ccc3=O)cc21 [Compound 150]	> 40 µM	
O=C1CCc2ccc(Cn3nc(-c4cnc(OCC(F)(F)F)nc4)ccc3=O)cc21 [Compound 88]		Inhibition rate of CK values (sampled 24 h after (last) dose) [2, 4]: 91.6%
O=C1CCc2c(F)cc(Cn3nc(-c4cnc(O[C@H]5CCOC5)nc4)ccc3=O)cc21 [Compound 165]	> 40 µM	
O=c1ccc(-c2cnc(OCC(F)(F)F)nc2)nn1Cc1ccc2c(c1)CCC2 [Compound 57]	> 40 µM	Inhibition rate of CK values (sampled 24 h after (last) dose) ([2]; 10 mpk single administration): 108.2%
N#CC1(COc2ncc(-c3ccc(=O)n(Cc4ccc5c(c4)C(=O)CC5)n3)cn2)CC1 [Compound 158]	> 40 µM	
